In PMC8851660 (ACS Omega, 2022):
In brackets after ≈: the same amount, converted by molar mass.

What was measured:
S. aureus clinical = test: microbe, parasite or virus in culture; type: cell-based; conditions: Staphylococcus aureus, read-out: Gram-positive MIC S. aureus clinical
E. coli (ATCC 25922) = test: microbe, parasite or virus in culture; type: cell-based; conditions: Escherichia coli, ATCC25922, read-out: Gram-negative MIC E. coli ATCC 25922
E. coli MDR = test: microbe, parasite or virus in culture; type: cell-based; conditions: Escherichia coli, read-out: Gram-negative MIC E. coli MDR
[1] = system: P. aeruginosa (ATCC 29853); type: cell-based, Pseudomonas aeruginosa
P. aeruginosa MDR = test: microbe, parasite or virus in culture; type: cell-based, Pseudomonas aeruginosa; conditions: for MIC: Pseudomonas aeruginosa, read-out: Gram-negative MIC P. aeruginosa MDR
C. albicans clinical = test: microbe, parasite or virus in culture; type: cell-based, Candida albicans; conditions: for MIC: Candida albicans, read-out: fungi MIC C. albicans clinical

SMILES	MIC (S. aureus clinical) [µg/mL]	MIC (E. coli (ATCC 25922)) [µg/mL]	MIC (E. coli MDR) [µg/mL]	Gram-negative MIC P. aeruginosa (ATCC 29853) [1] [µg/mL]	Gram-negative MIC P. aeruginosa MDR (P. aeruginosa MDR) [µg/mL]	MIC (P. aeruginosa MDR) [µg/mL]	MIC (C. albicans clinical) [µg/mL]	fungi MIC C. albicans clinical (C. albicans clinical) [µg/mL]
CC1(C)S[C@@H]2[C@H](NC(=O)[C@H](N)c3ccc(O)cc3)C(=O)N2[C@H]1C(=O)O [AMOX, amoxicillin, reference compound]	≤ 7.81	62.5 (≈ 171 µM)	250 (≈ 684 µM)	>500	>500	> 500	–	–
Cc1nc2ccccc2n(-c2ccc([N+](=O)[O-])cc2[N+](=O)[O-])c1=O [Compound 4, 1-(2,4-Dinitrophenyl)-3-methylquinoxalin-2(1H)-one]	16.1 (≈ 49.4 µM)	125 (≈ 383 µM)	125 (≈ 383 µM)	–	–	125 (≈ 383 µM)	125 (≈ 383 µM)	–
O=c1c(Cc2ccccc2)nc2ccccc2n1-c1ccc([N+](=O)[O-])cc1[N+](=O)[O-] [Compound 5, 3-Benzyl-1-(2,4-dinitrophenyl)quinoxalin-2(1H)-one]	500 (≈ 1240 µM)	> 500	> 500	–	–	125 (≈ 311 µM)	> 500	–
O=[N+]([O-])c1ccc(Sc2nc3ccccc3s2)c([N+](=O)[O-])c1 [Compound 6, 2-[(2,4-Dinitrophenyl)thio]benzo[d]thiazole]	500 (≈ 1500 µM)	500 (≈ 1500 µM)	> 500	–	–	125 (≈ 375 µM)	500 (≈ 1500 µM)	–
Cn1ccc(=O)nc1Sc1ccc([N+](=O)[O-])cc1[N+](=O)[O-] [Compound 7, 2-[(2,4-Dinitrophenyl)thio]-1-methylpyrimidin-4(1H)-one]	32.2 (≈ 105 µM)	64.5 (≈ 209 µM)	125 (≈ 405 µM)	–	–	125 (≈ 405 µM)	16.1 (≈ 52.3 µM)	–
O=[N+]([O-])c1ccc(Oc2cccc3cccnc23)c([N+](=O)[O-])c1 [Compound 8, 8-(2,4-Dinitrophenoxy)quinoline]	125 (≈ 402 µM)	125 (≈ 402 µM)	125 (≈ 402 µM)	–	–	125 (≈ 402 µM)	125 (≈ 402 µM)	–
CC(C)(C)c1cccc(C(C)(C)C)c1Oc1ccc([N+](=O)[O-])cc1[N+](=O)[O-] [Compound 9, 1,3-Di-tert-butyl-2-(2,4-dinitrophenoxy)benzene]	500 (≈ 1340 µM)	> 500	125 (≈ 336 µM)	–	–	125 (≈ 336 µM)	> 500	–
O=[N+]([O-])c1ccc(-n2ccnc2)c([N+](=O)[O-])c1 [Compound 11, 1-(2,4-Dinitrophenyl)-1H-imidazole]	125 (≈ 534 µM)	125 (≈ 534 µM)	125 (≈ 534 µM)	–	–	125 (≈ 534 µM)	125 (≈ 534 µM)	–
C[C@@H]1[C@H](O)[C@@H](C)/C=C/C=C/CC/C=C/C=C/C=C/C=C/C(O[C@H]2O[C@H](C)[C@@H](O)[C@H](N)[C@@H]2O)CC2O[C@](O)(CC(O)C(O)CCC(O)CC(O)CC(O)CC(=O)O[C@H]1C)CC(O)C2C(=O)O (stereo partly drawn) [NYS, nystatin, reference compound]	–	–	–	–	–	–	–	<2
